Results published in article PMC4373884, “Crystal Structures of the Kinase Domain of the Sulfate-Activating Complex in Mycobacterium tuberculosis” (PLoS ONE, 2015).

Tests used:
[1] = molecular target: T1, CysC (APS kinase domain of CysN) (Mycobacterium tuberculosis, UniProt P9WNM5)
T1 construct: gene cysNC

[2] = molecular target: T1, CysC (APS kinase domain of CysN); remark: listed apart in the source

T1 sequence (P9WNM5 424-612): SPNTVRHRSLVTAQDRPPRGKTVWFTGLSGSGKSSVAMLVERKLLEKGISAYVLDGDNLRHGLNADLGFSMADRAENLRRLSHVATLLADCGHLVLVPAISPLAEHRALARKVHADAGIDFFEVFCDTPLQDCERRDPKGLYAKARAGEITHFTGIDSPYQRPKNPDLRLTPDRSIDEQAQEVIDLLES

Row | SMILES | X-ray crystal structure [1] | ADP-Glo luminescence kinase assay [2]
1 | Nc1ncnc2c1ncn2[C@@H]1O[C@H](COP(=O)(O)OP(=O)(O)NP(=O)(O)O)[C@@H](O)[C@H]1O [AMP-PNP] | The bound ligands AMP-PNP and APS are well defined in electron density | 
2 | Nc1ncnc2c1ncn2[C@@H]1O[C@H](COP(=O)(O)OP(=O)(O)OP(=O)(O)O)[C@@H](O)[C@H]1O [ATP] |  | The CysC domain used in this study is catalytically active and shows APS kinase activity
3 | Nc1ncnc2c1ncn2[C@@H]1O[C@H](COP(=O)(O)OP(=O)(O)O)[C@@H](O)[C@H]1O [ADP] | The electron density maps clearly show the presence of one molecule of ADP per subunit | 
